How the values were obtained:
HDAC1 = details: cited from earlier work
HDAC2 = details: cited from earlier work
HDAC8 = details: cited from earlier work
HDAC3 = details: cited from earlier work
3xTg-AD mice [1] = assay: Behavior tests (NOR and battery) in 3xTg-AD mice; assay type: in vivo, mouse; details: 0.01 mg/kg oral gavage 5 days a week
From the text: (§1) Male and female triple-transgenic AD (3xTg-AD) mice from the NIH-supported Mutant Mouse Resource & Research Centers (MMRRC) were purchased through the Jackson Laboratory (Farmington, CT, USA). Mice were housed four animals per cage in an AAALAC-accredited animal facility at the University of Miami Miller School of Medicine. All experiments were approved by the University of Miami Miller School of Medicine Institutional Animal Care and Use Committee (IACUC).
(§2) Formulations were made fresh weekly and sonicated briefly to mix. Beginning at 4 months of age (prior to disease development), mice were treated 5 days a week for 9 months.
A series of behavior tests intended to test motor coordination, anxiety, spatial learning, and reference memory was performed as previously performed by our lab. Motor coordination was assessed at 11 months of age using rotarod. Anxiety was assessed by open field at 7 months and elevated O-maze at 11 months. […]
1. […] Motor coordination was assessed by the latency to fall on the very first trial between treatment groups. […]
3. […] Arm entries were recorded and percent of spontaneous alternations was calculated. […]
4. […] Distance traveled, velocity of movement within the arena, and time in center versus periphery were recorded and analyzed. Anxiety- related behavior is assessed by the duration spent in the center of the field versus the periphery. […]

3xTg-AD mice [2] = assay: Intraperitoneal glucose tolerance testing (GTT) in 3xTg-AD mice; assay type: in vivo, mouse; details: 10 months of age, 0.01 mg/kg oral gavage 5 days a week
From the text: as §1, §2
(§3) Mice underwent intraperitoneal (i.p.) glucose tolerance testing (GTT) at 10 months of age, and insulin tolerance testing (ITT) at 12 months of age. For both tests, mice were food fasted 6 h prior to testing, with access to water. For GTT, mice were injected with 1.5 g/kg body weight glucose diluted in saline. For ITT, mice were injected with 0.8 U/kg body weight insulin. For both tests, blood glucose was measured from a tail prick by a glucometer (Bayer; Leverkusen, Germany) at 0, 15, 30, 60, 90, and 120 min.

3xTg-AD mice [3] = assay: Insulin tolerance testing (ITT) in 3xTg-AD mice; assay type: in vivo, mouse; details: 12 months, 0.01 mg/kg oral gavage 5 days a week
From the text: as §1, §2, §3

[4] = test system: Human Aβ1–42, Aβ1–40, total tau, phosphorylated-tau Serine-396, phosphorylated-tau Threonine-181; assay: ELISA for tau and Aβ species in brain tissue of 3xTg-AD mice; assay type: in vivo, mouse
From the text: as §1, §2
(§4) At 13 months of age, mice were anaesthetized with isoflurane and euthanized via cardiac puncture. The brain was extracted and quickly dissected on ice, and snap-frozen in liquid nitrogen. The samples were stored at −80 °C until processed. For each mouse, brain regions from one hemisphere were used for RNA extraction and qPCR and sections from the other hemisphere were used for protein extraction and ELISAs.
Protein lysates were prepared by sonicating tissue in M-PER Mammalian Protein Extraction Reagent (Thermo Fisher Scientific; Waltham, MA, USA) supplemented with protease and phosphatase inhibitor (Thermo Fisher Scientific). Total protein was quantified using Pierce BCA Protein Assay Kit (Thermo Fisher Scientific). Human Aβ1–42, Aβ1–40, total tau, phosphorylated-tau Serine-396, and phosphorylated-tau Threonine-181 were measured in brain tissue by enzyme-linked immunosorbent assay (ELISA; Invitrogen, Thermo Fisher Scientific), and measured using the EnVision® multimode plate reader (Perkin Elmer; Waltham, MA, USA).

[5] = test system: differentially expressed genes; assay: NanoString nCounter Mouse Neuropathology Panel and Ingenuity Pathway Analysis, ERC RNA of 3xTg-AD mice; assay type: in vivo; details: for DEGs decreased compared to vehicle / DEGs increased compared to vehicle / significant differentially expressed genes (DEG) compared to vehicle: ERC, 0.01 mg/kg oral gavage 9 months; for significant differentially expressed genes (DEG) compared to vehicle: Q value < 0.01; for most pathways incl. neuroinflammation signaling and amyloid processing pathway, vs vehicle: Ingenuity Pathway Analysis
From the text: as §1, §2, §4
The NanoString Technologies nCounter® Mouse Neuropathology Panel was used to assess ERC RNA. This panel screens expression of 770 genes specific for neurodegeneration. We also included a custom 30-gene spike-in code set to include specific genes of interest. Assays were performed using the NanoString protocols, and data were normalized in nSolver® analysis software v 2.0.
Heatmaps were created with Morpheus Software (accessed on 20 February 2022; software.broadinstitute.org/Morpheus). Ingenuity Pathway Analysis (Qiagen) was used to run comparison analyses of differentially regulated pathways between male and female animals.

Adam10, Slc2a1, Slc2a3 = assay: RT-qPCR of AD- and glucose metabolism-related genes in brain of 3xTg-AD mice; assay type: in vivo, mouse; details: 0.01 mg/kg oral gavage 9 months
From the text: as §1, §2, §4
RNA was isolated from tissue using TRIzol® reagent (Life Technologies, Thermo Fisher Scientific) and a Qiagen RNeasy® Mini Kit (Qiagen; Hilden, Germany). RNA concentrations and quality were determined using NanoDrop 2000 UV-Vis Spectrophotometer (Thermo Fisher Scientific). cDNA was created using qScript cDNA Synthesis kit (Quantabio; Beverly, MA, USA). RT-qPCR was run using TaqMan 2-step RT-qPCR reagents (Thermo Fisher Scientific) on the QuantStudio Flex RT-qPCR system (Applied Biosystems, Thermo Fisher Scientific). Fold-change in gene expression relative to non-transduced controls were normalized. Results presented are based on fold-change using the 2^(−ΔΔCt) method.

HDAC10 = details: cited from earlier work
[6] = cited from earlier work
[7] = test system: histone H3K27 acetylation; details: 0.1 mg/kg, mouse model of immune thrombocytopenia; cited from earlier work
[8] = PFC, 0.01 mg/kg oral gavage 5 days a week for 9 months
[9] = hippocampus, females, 0.01 mg/kg oral gavage 5 days a week for 9 months
[10] = hippocampus, males, 0.01 mg/kg oral gavage 5 days a week for 9 months

**Q.** Which IC50 (HDAC1) does the source give for Nc1ccccc1NC(=O)c1ccc(CNC(=O)OCc2cccnc2)cc1 [Entinostat] here?
**A.** The IC50 was […].

**Q.** And the IC50 (HDAC2)?
**A.** Its IC50 is […].

**Q.** And the IC50 (HDAC8; reported)?
**A.** Its IC50 is […].

**Q.** Which IC50 (HDAC1) does the source give for CC(=O)Nc1ccc(C(=O)Nc2ccccc2N)cc1 [Tacedinaline] here?
**A.** Its IC50 is […].

**Q.** And the IC50 (HDAC2)?
**A.** Its IC50 is 900 nM.

**Q.** And the IC50 (HDAC3)?
**A.** Its IC50 is 1200 nM.

**Q.** And the “inhibition of HDAC8” value (HDAC8)?
**A.** Its value is “not reported to inhibit HDAC8”.

**Q.** What does the source list for Nc1cc(F)ccc1NC(=O)c1ccc(CNC(=O)/C=C/c2cccnc2)cc1 [chidamide]?
**A.** NOR: time exploring novel vs familiar object compared to vehicle (3xTg-AD mice [1]; 10-month-old males): longer time exploring the novel object; overall behavior data (anxiety, learning, memory) (3xTg-AD mice [1]; males and females): do not reach the appropriate effect size to distinguish any meaningful results; glucose tolerance vs vehicle (3xTg-AD mice [2]; females): trend towards improved glucose tolerance; glucose tolerance vs vehicle (3xTg-AD mice [2]; males): significant improvement in glucose tolerance; insulin tolerance vs vehicle (3xTg-AD mice [3]; females): No significant differences; insulin tolerance vs vehicle (3xTg-AD mice [3]; males): No significant differences; tau phosphorylated at serine 396 (S396) vs vehicle ([4]; PFC, females, 0.01 mg/kg oral gavage 5 days a week for 9 months): no significant difference; tau phosphorylated at serine 396 (S396) vs vehicle ([4]; PFC, males, 0.01 mg/kg oral gavage 5 days a week for 9 months): significantly greater; Aβ-40 levels, treated females compared to treated males [4, 8]: greater in chidamide-treated females compared to males; PFC Aβ-42 change with treatment [4, 8]: a corresponding decrease in PFC Aβ-42 was not observed; progression of AD-like pathology ([4]; chronic, low-dose 0.01 mg/kg, 3xTg-AD mouse): does not appear to significantly alter progression of AD-like pathology; tau phosphorylated at threonine 181 (T181) vs vehicle [4, 9]: trend for decreased levels; total tau levels vs vehicle [4, 9]: did not show a significant difference; tau phosphorylated at threonine 181 (T181) vs vehicle [4, 10]: trend for decreased levels; total tau levels vs vehicle [4, 10]: significantly lower levels of total tau; Aβ-42 levels, treated females compared to treated males ([4]; hippocampus, 0.01 mg/kg oral gavage 5 days a week for 9 months): significantly greater in the hippocampus of female- compared to male-treated mice; DEGs decreased compared to vehicle ([5]; females): 6; DEGs increased compared to vehicle ([5]; females): 11; significant differentially expressed genes (DEG) compared to vehicle ([5]; females): 17; most pathways incl. neuroinflammation signaling and amyloid processing pathway, vs vehicle ([5]; females): downregulated; DEGs decreased compared to vehicle ([5]; males): 41; DEGs increased compared to vehicle ([5]; males): 83; significant differentially expressed genes (DEG) compared to vehicle ([5]; males): 124; most pathways incl. neuroinflammation signaling and amyloid processing pathway, vs vehicle ([5]; males): upregulated; Adam10 expression vs vehicle (Adam10, Slc2a1, Slc2a3; PFC, females): significantly greater; Adam10 expression vs vehicle (Adam10, Slc2a1, Slc2a3; PFC, males): trend for increase; Adam10 expression vs vehicle (Adam10, Slc2a1, Slc2a3; hippocampus): no difference was observed; Slc2a1 (GLUT1) expression vs vehicle (Adam10, Slc2a1, Slc2a3; males, hippocampus): trend for an increase; Slc2a3 (GLUT3) expression vs vehicle (Adam10, Slc2a1, Slc2a3; males, hippocampus): significant increase; inhibition of HDAC1 (HDAC1): low nanomolar range; inhibition of HDAC2 (HDAC2): low nanomolar range; inhibition of HDAC3 (HDAC3): low nanomolar range; inhibition of class IIB HDAC10 (HDAC10): low nanomolar range; blood–brain barrier crossing [6]: crosses the blood–brain barrier; histone H3K27 acetylation [7]: modulation of histone H3K27 acetylation occurred at this low dose

Source: article PMC10526199 (Biomolecules, 2023)
